Measured values: patent publication US20040241653A1, “Methods for identifying marker genes for cancer” (priority 2001, published 2004)

What was measured:
p21 promoter = test: p21/Waf1 p53-responsive promoter CAT reporter assay in transfected LNCaP cells; type: cell-based, human; conditions: LNCaP cells co-transfected with p21-CAT reporter and wild type p53 plasmid; TSA 100 nM
Procedure: (§1) FIG. 2: Opposite regulatory effect of p53 on PSA and p21 promoters. Chloramphenicol acetyltransferase (CAT)-reporter constructs were used to estimate p53 influence on PSA and p21 promoter elements. […]
(§2) FIG. 3: Trichostatin A (TSA) treatment eliminates the effect p53 has on PSA promoter activity. […] TSA (100 nM) was added 5 h and CAT activity was measured 40 h post-transfection. […]
(§3) Since it has previously been shown that negative regulation of transcription by p53 may involve p53-mediated recruitment of histone deacetylases (HDAC) (Murphy et al., Genes Dev., i3:2490-2501 1999), the inventors set out to determine whether this would be also true for the PSA promoter. […] At the same time, TSA had no effect on p53-mediated transactivation as determined in a similar experiment employing the p21 promoter-driven CAT reporter construct (FIG. 3). […]

PSA promoter = test: PSA promoter/enhancer CAT reporter assay in transfected LNCaP cells; type: cell-based, human; conditions: LNCaP cells co-transfected with PSA-CAT reporter and wild type p53 plasmid; TSA 100 nM
Procedure: as §1, §2, §3

## CC(/C=C/C(=O)NO)=C\[C@@H](C)C(=O)c1ccc(N(C)C)cc1 [TSA, Trichostatin A]
p21 promoter
  p53-mediated transactivation of p21 promoter-driven CAT reporter: no effect
PSA promoter
  p53-mediated repression of PSA promoter driven transcriptional activity (CAT activity): completely abrogated
